Like-named read-outs stand apart in the source and are kept apart here.
Molecular target: T1, Androgen Receptor (Homo sapiens, UniProt P10275)
T1 construct: endogenous in cells; host or cells: VCaP cells
T1 sequence (P10275 1-920): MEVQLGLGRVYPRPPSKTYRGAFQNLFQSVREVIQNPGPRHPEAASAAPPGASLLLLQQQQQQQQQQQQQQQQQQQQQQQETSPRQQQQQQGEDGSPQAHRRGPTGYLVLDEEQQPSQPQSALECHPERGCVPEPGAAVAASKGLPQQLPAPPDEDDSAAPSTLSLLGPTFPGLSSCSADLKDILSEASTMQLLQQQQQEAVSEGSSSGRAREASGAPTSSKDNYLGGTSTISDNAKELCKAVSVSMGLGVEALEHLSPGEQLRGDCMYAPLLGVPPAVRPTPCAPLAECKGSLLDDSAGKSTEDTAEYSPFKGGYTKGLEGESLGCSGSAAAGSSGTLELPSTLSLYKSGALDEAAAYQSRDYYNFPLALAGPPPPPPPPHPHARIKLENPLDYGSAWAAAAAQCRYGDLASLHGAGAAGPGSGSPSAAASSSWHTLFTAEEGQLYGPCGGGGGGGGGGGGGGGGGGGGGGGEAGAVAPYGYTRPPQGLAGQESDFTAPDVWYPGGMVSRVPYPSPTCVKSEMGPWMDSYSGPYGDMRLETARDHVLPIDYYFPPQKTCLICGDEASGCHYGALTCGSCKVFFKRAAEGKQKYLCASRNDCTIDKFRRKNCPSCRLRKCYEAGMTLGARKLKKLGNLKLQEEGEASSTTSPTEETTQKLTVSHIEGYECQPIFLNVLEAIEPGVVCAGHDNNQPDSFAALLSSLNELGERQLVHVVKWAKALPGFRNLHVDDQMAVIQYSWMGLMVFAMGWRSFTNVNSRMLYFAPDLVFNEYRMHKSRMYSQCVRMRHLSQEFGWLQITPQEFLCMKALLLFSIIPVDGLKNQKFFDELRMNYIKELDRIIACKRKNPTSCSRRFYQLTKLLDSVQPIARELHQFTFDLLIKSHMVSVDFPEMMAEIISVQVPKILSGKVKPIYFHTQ
Test: Androgen Receptor ELISA assay (PathScan AR ELISA) in VCaP cells: AR degradation, Dmax and DC50
Format: cell-based
Outline: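 After 24 h exposure of VCaP cells (charcoal-stripped serum, 0.1 nM R1881 agonist, 0.1% DMSO) to seven half-log compound concentrations, residual AR in lysates was measured by PathScan ELISA (TMB absorbance, 450 nm). Cells were plated at 30,000/well and grown at least 3 days beforehand.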

[1] = VCaP cells; Table 36; read-out: VCaP DC50
[2] = VCaP, VCaP cells; Table 36; read-out: VCaP Dmax (%)
[3] = VCaP, read-out: VCaP Dmax (%), VCaP cells; Table 36

Cc1ncsc1-c1ccc([C@H](C)NC(=O)C2C[C@@H](O)CN2C(=O)[C@@H](NC(=O)CN2C[C@@H]3C[C@H]2CN3CCCc2ccc(C(=O)N[C@H]3C(C)(C)[C@H](Oc4ccc(C#N)c(Cl)c4)C3(C)C)cc2)C(C)(C)C)cc1 (stereo partly drawn) [Example 801, (2S,4R)-1-((S)-2-(2-((1S,4S)-5-(3-(4-(((1r,3S)-3-(3-chloro-4-cyanophenoxy)-2,2,4,4-tetramethylcyclobutyl)carbamoyl)phenyl)propyl)-2,5-diazabicyclo[2.2.1]heptan-2-yl)acetamido)-3,3-dimethylbutanoyl)-4-hydroxy-N-((S)-1-(4-(4-methylthiazol-5-yl)phenyl)ethyl)pyrrolidine-2-carboxamide]
DC50 [1]: < 0.05 µM
Dmax [2]: 51 to 70%

Cc1ncsc1-c1ccc([C@H](C)NC(=O)[C@@H]2C[C@@H](O)CN2C(=O)[C@@H](NC(=O)CN2C3CCC2CN(CCCc2ccc(C(=O)NC4C(C)(C)C(Oc5ccc(C#N)c(Cl)c5)C4(C)C)cc2)C3)C(C)(C)C)cc1 (stereo partly drawn) [Example 802, (2S,4R)-1-((2S)-2-(2-(3-(3-(4-(((1r,3r)-3-(3-chloro-4-cyanophenoxy)-2,2,4,4-tetramethylcyclobutyl)carbamoyl)phenyl)propyl)-3,8-diazabicyclo[3.2.1]octan-8-yl)acetamido)-3,3-dimethylbutanoyl)-4-hydroxy-N-((S)-1-(4-(4-methylthiazol-5-yl)phenyl)ethyl)pyrrolidine-2-carboxamide]
VCaP Dmax (%) (VCaP cells; Table 36): +++ (51% ≤ Dmax ≤ 70%)
DC50 [1]: < 0.05 µM

Cc1ncsc1-c1ccc([C@H](C)NC(=O)C2C[C@@H](O)CN2C(=O)[C@@H](NC(=O)CCCC2(N3CCN(c4ccc(C(=O)N[C@H]5C(C)(C)[C@H](Oc6ccc(C#N)c(Cl)c6)C5(C)C)cn4)CC3)COC2)C(C)(C)C)cc1 (stereo partly drawn) [Example 803, N-((1r,3r)-3-(3-chloro-4-cyanophenoxy)-2,2,4,4-tetramethylcyclobutyl)-6-(4-(3-(4-(((S)-1-((2S,4R)-4-hydroxy-2-(((S)-1-(4-(4-methylthiazol-5-yl)phenyl)ethyl)carbamoyl)pyrrolidin-1-yl)-3,3-dimethyl-1-oxobutan-2-yl)amino)-4-oxobutyl)oxetan-3-yl)piperazin-1-yl)nicotinamide]
DC50 [1]: > 0.501 µM
Dmax [2]: 26 to 50%

Cc1ncsc1-c1ccc([C@H](C)NC(=O)[C@@H]2C[C@@H](O)CN2C(=O)[C@@H](NC(=O)CN2CCN(CCCCN3CCN(c4ccc(C(=O)N[C@H]5C(C)(C)[C@H](Oc6ccc(C#N)c(Cl)c6)C5(C)C)cn4)CC3)CC2)C(C)(C)C)cc1 [Example 804, N-((1r,3r)-3-(3-chloro-4-cyanophenoxy)-2,2,4,4-tetramethylcyclobutyl)-6-(4-(4-(4-(2-(((S)-1-((2S,4R)-4-hydroxy-2-(((S)-1-(4-(4-methylthiazol-5-yl)phenyl)ethyl)carbamoyl)pyrrolidin-1-yl)-3,3-dimethyl-1-oxobutan-2-yl)amino)-2-oxoethyl)piperazin-1-yl)butyl)piperazin-1-yl)nicotinamide]
DC50 [1]: < 0.05 µM
Dmax [3]: 51 to 70%

Cc1ncsc1-c1ccc([C@H](C)NC(=O)[C@@H]2C[C@@H](O)CN2C(=O)[C@@H](NC(=O)CN2CCN(CCOCCN3CCN(c4ccc(C(=O)N[C@H]5C(C)(C)[C@H](Oc6ccc(C#N)c(Cl)c6)C5(C)C)cn4)CC3)CC2)C(C)(C)C)cc1 [Example 805, N-((1r,3r)-3-(3-chloro-4-cyanophenoxy)-2,2,4,4-tetramethylcyclobutyl)-6-(4-(2-(2-(4-(2-(((S)-1-((2S,4R)-4-hydroxy-2-(((S)-1-(4-(4-methylthiazol-5-yl)phenyl)ethyl)carbamoyl)pyrrolidin-1-yl)-3,3-dimethyl-1-oxobutan-2-yl)amino)-2-oxoethyl)piperazin-1-yl)ethoxy)ethyl)piperazin-1-yl)nicotinamide]
DC50 [1]: > 0.501 µM
Dmax [3]: < 25%

Cc1ncsc1-c1ccc([C@H](C)NC(=O)C2C[C@@H](O)CN2C(=O)C(NC(=O)CN2CCN(CCCCc3ccc(C(=O)N[C@H]4C(C)(C)[C@H](Oc5ccc(C#N)c(Cl)c5)C4(C)C)cc3)CC2)C(C)(C)C)cc1 (stereo partly drawn) [Example 806, (2S,4R)-1-((S)-2-(2-(4-(4-(4-(((1r,3r)-3-(3-chloro-4-cyanophenoxy)-2,2,4,4-tetramethylcyclobutyl)carbamoyl)phenyl)butyl)piperazin-1-yl)acetamido)-3,3-dimethylbutanoyl)-4-hydroxy-N-((S)-1-(4-(4-methylthiazol-5-yl)phenyl)ethyl)pyrrolidine-2-carboxamide]
DC50 [1]: < 0.05 µM
Dmax [2]: > 71%

Cc1ncsc1-c1ccc([C@H](C)NC(=O)C2C[C@@H](O)CN2C(=O)[C@@H](NC(=O)CN2C[C@@H]3C[C@H]2CN3CCCc2ccc(C(=O)N[C@H]3C(C)(C)[C@H](Oc4ccc(C#N)c(Cl)c4)C3(C)C)cc2)C(C)(C)C)cc1 (stereo partly drawn) [Example 807, (2S,4R)-1-((S)-2-(2-((1R,4R)-5-(3-(4-(((1r,3R)-3-(3-chloro-4-cyanophenoxy)-2,2,4,4-tetramethylcyclobutyl)carbamoyl)phenyl)propyl)-2,5-diazabicyclo[2.2.1]heptan-2-yl)acetamido)-3,3-dimethylbutanoyl)-4-hydroxy-N-((S)-1-(4-(4-methylthiazol-5-yl)phenyl)ethyl)pyrrolidine-2-carboxamide]
DC50 [1]: < 0.05 µM

Cc1ncsc1-c1ccc([C@H](C)NC(=O)[C@@H]2C[C@@H](O)CN2C(=O)[C@@H](NC(=O)CN2CC3CCC(C2)N3CCCc2ccc(C(=O)NC3C(C)(C)C(Oc4ccc(C#N)c(Cl)c4)C3(C)C)cc2)C(C)(C)C)cc1 (stereo partly drawn) [Example 808, (2S,4R)-1-((2S)-2-(2-(8-(3-(4-(((1r,3r)-3-(3-chloro-4-cyanophenoxy)-2,2,4,4-tetramethylcyclobutyl)carbamoyl)phenyl)propyl)-3,8-diazabicyclo[3.2.1]octan-3-yl)acetamido)-3,3-dimethylbutanoyl)-4-hydroxy-N-((S)-1-(4-(4-methylthiazol-5-yl)phenyl)ethyl)pyrrolidine-2-carboxamide]
Dmax (VCaP, read-out: VCaP Dmax (%)): 26 to 50%
DC50 (read-out: VCaP DC50; VCaP cells; Table 36): < 0.05 µM

Cc1ncsc1-c1ccc([C@H](C)NC(=O)[C@@H]2C[C@@H](O)CN2C(=O)[C@@H](NC(=O)CN2CCN(C3CC4(C3)CN(c3ccc(C(=O)N[C@H]5C(C)(C)[C@H](Oc6ccc(C#N)c(Cl)c6)C5(C)C)cn3)C4)CC2)C(C)(C)C)cc1 [Example 809, N-((1r,3r)-3-(3-chloro-4-cyanophenoxy)-2,2,4,4-tetramethylcyclobutyl)-6-(6-(4-(2-(((S)-1-((2S, 4R)-4-hydroxy-2-(((S)-1-(4-(4-methylthiazol-5-yl)phenyl)ethyl)carbamoyl)pyrrolidin-1-yl)-3,3-dimethyl-1-oxobutan-2-yl)amino)-2-oxoethyl)piperazin-1-yl)-2-azaspiro[3.3]heptan-2-yl)n icotinamide]
DC50 [1]: < 0.05 µM
Dmax (VCaP, read-out: VCaP Dmax (%)): > 71%

Cc1ncsc1-c1ccc([C@H](C)NC(=O)C2C[C@@H](O)CN2C(=O)C(c2cc(OCCN(C)[C@H](C(=O)NC(C(=O)N3CCN(c4ccc(C(=O)NC5C(C)(C)C(Oc6ccc(C#N)c(Cl)c6)C5(C)C)cc4)CC3)C(C)C)C(C)C)no2)C(C)C)cc1 (stereo partly drawn) [Example 810, (2S,4R)-1-(2-(3-(2-(((S)-1-(((S)-1-(4-(4-(((1r,3S)-3-(3-chloro-4-cyanophenoxy)-2,2,4,4-tetramethylcyclobutyl)carbamoyl)phenyl)piperazin-1-yl)-3-methyl-1-oxobutan-2-yl)amino)-3-methyl-1-oxobutan-2-yl) (methyl)amino)ethoxy)isoxazol-5-yl)-3-methylbutanoyl)-4-hydroxy-N-((S)-1-(4-(4-methylthiazol-5-yl)phenyl)ethyl) pyrrolidine-2-carboxamide]
DC50 [1]: < 0.05 µM
Dmax (VCaP, read-out: VCaP Dmax (%)): > 71%

Cc1ncsc1-c1ccc([C@H](CO)NC(=O)[C@@H]2C[C@@H](O)CN2C(=O)[C@@H](NC(=O)COCCN2CCN(c3ccc(C(=O)N[C@H]4C(C)(C)[C@H](Oc5ccc(C#N)c(Cl)c5)C4(C)C)cn3)CC2)C(C)(C)C)cc1 [Example 812, N-((1r,3r)-3-(3-chloro-4-cyanophenoxy)-2,2,4,4-tetramethylcyclobutyl)-6-(4-(2-(2-(((S)-1-((2S, 4R)-4-hydroxy-2-(((R)-2-hydroxy-1-(4-(4-methylthiazol-5-yl)phenyl)ethyl)carbamoyl)pyrrolidin-1-yl)-3,3-dimethyl-1-oxobutan-2-yl)amino)-2-oxoethoxy)ethyl)piperazin-1-yl) nicotinamide]
DC50 [1]: < 0.05 µM
Dmax [2]: > 71%
